Reference: US20240285571A1, “METHODS OF TREATING BONE INFECTIONS” (MICROBION CORPORATION, priority 2020, published 2024)
≈ marks a conversion by molar mass, not a printed value. Like-named read-outs stand apart in the source and are kept apart here.

What was measured:
P. aeruginosa [1] = settings: P. aeruginosa MMX 103 (ATCC 27853); cited from earlier work
S. pneumoniae = assay: Broth microdilution MIC (Example 5); format: cell-based; settings: Streptococcus pneumoniae
Method in brief: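 Susceptibility testing used automated two-fold serial dilution in microdilution plates per CLSI. Each well received a standardized inoculum from a 0.5 McFarland suspension, with an unmedicated column as growth control.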

P. aeruginosa [2] = assay: Broth microdilution MIC (Example 5); format: cell-based, Pseudomonas aeruginosa; settings: Pseudomonas aeruginosa
Method: (§1) Test and Comparator Agents: The test agents were stored at room temperature until assayed. […] The stock solutions were allowed to stand for at least 1 hr prior to use to auto-sterilize.
(§2) TestMedia: Test media were prepared and stored in accordance with guidelines from CLSI (4, 6, 7).
(§3) Broth Microdilution MC Testing (Aerobic Bacteria and Yeast): The broth microdilution assay method employed for the susceptibility testing of aerobic bacteria (excluding N. gonorrhoeae which was evaluated by agar dilution) and yeast essentially followed the procedures described by CLSI (3, 4, 7, 8) and employed automated liquid handlers to conduct serial dilutions and liquid transfers. […] These would become the ‘mother plates’ from which ‘daughter’ or test plates would be prepared. The drugs (300 μL at 40× the desired top concentration in the test plates) were dispensed into the appropriate well in Column 1 of the mother plates. The Biomek 2000 was used to make serial two-fold dilutions through Column 11 in the “mother plate”. The wells of Column 12 contained no drug and ultimately served as the organism growth control wells.
(§4) The daughter plates were prepared using the Biomek FX which transferred 5 μL of drug solution from each well of a mother plate to the corresponding well of the correct daughter plate in a single step.
(§5) A standardized inoculum of each organism was prepared per CLSI methods (3, 7). Isolated colonies of each test isolate were picked from the primary plate and a suspension was prepared to equal a 0.5 McFarland turbidity standard. Standardized suspensions were then diluted […] (1:100 for yeast, 1:20 for bacteria). After dilution, the inoculum suspensions were then transferred to compartments of sterile reservoirs divided by length (Beckman Coulter), and the Biomek 2000 was used to inoculate all plates. Daughter plates were placed on the Biomek 2000 in reverse orientation so that plates were inoculated from low to high drug concentration.
(§6) The Biomek 2000 delivered 10 μL of standardized inoculum into each well of the appropriate daughter plate for an additional 1:20 dilution.
(§7) Plates were stacked 4 high, covered with a lid on the top plate, placed into plastic bags, and incubated at 35° C. for approximately 24-48 hr for all yeast isolates and 16-24 hr for aerobic bacteria. Plates were viewed from the bottom using a plate viewer. […] MIC endpoints for the test agents and control compounds were read per CLSI criteria (3, 7).

A. baumannii = assay: Broth microdilution MIC (Example 5); format: cell-based, Acinetobacter baumannii; settings: Acinetobacter baumannii
Method: as §1, §2, §3, §4, §5, §6, §7

E. faecalis = assay: Broth microdilution MIC (Example 5); format: cell-based, Enterococcus faecalis; settings: Enterococcus faecalis, VRE
Method: as §1, §2, §3, §4, §5, §6, §7

enterococci = assay: MIC summary, enterococci (Example 5); format: cell-based, E. faecalis and E. faecium; settings: Enterococcus, VRE (Table 5), read-out: MIC values across isolates
Method: (§8) Test and Comparator Agents: The test agents were stored at room temperature until assayed. All test agents were suspended and diluted in 100% dimethylsulfoxide (DMSO), and were ultimately tested at a final concentration of 0.06-64 μg/mL. The stock solutions were allowed to stand for at least 1 hr prior to use to auto-sterilize.
(§9) TestMedia: Test media were prepared and stored in accordance with guidelines from CLSI (4, 6, 7). […] Neisseria gonorrhoeae were evaluated by agar dilution using agar consisting of GC medium base (BD; Lot No. 4274618) supplemented with 1% IsoVitaleX (BD; Lot No. 5246843).
(§10) Broth Microdilution MC Testing (Aerobic Bacteria and Yeast): The broth microdilution assay method employed for the susceptibility testing of aerobic bacteria (excluding N. gonorrhoeae which was evaluated by agar dilution) and yeast essentially followed the procedures described by CLSI (3, 4, 7, 8) and employed automated liquid handlers to conduct serial dilutions and liquid transfers. […]
(§11) Plates were stacked 4 high, covered with a lid on the top plate, placed into plastic bags, and incubated at 35° C. for approximately 24-48 hr for all yeast isolates and 16-24 hr for aerobic bacteria. […] MIC endpoints for the test agents and control compounds were read per CLSI criteria (3, 7).

[3] = test system: P. aeruginosa and A. baumannii; assay: MIC summary, P. aeruginosa and A. baumannii (Example 5); format: cell-based; settings: all evaluated P. aeruginosa and A. baumannii isolates (Table 4); read-out: MIC values across isolates
Method: as §8, §9, §10, §11

N. gonorrhoeae = assay: microbe, parasite or virus in culture; settings: Neisseria gonorrhoeae
M. abscessus (MABSC) = assay: MIC against CF isolates (Example 7, Table 18); format: cell-based, Mycobacterium abscessus complex; settings: Mycobacteroides abscessus
[4] = ATCC49619, S. pneumoniae MMX 6837 (ATCC 49619), QC
[5] = S. pneumoniae MMX 880, LevR SXTR CCR EryR PenR
[6] = S. pneumoniae MMX 937, MemR SXTR CCR EryR PenR
[7] = S. pneumoniae MMX 3959, CCR EryR
[8] = S. pneumoniae MMX 5440, MemR SXTR CCR EryR PenR
[9] = S. pneumoniae MMX 5445, MemR SXTR CCR EryR PenR
[10] = S. pneumoniae MMX 8133, MemR SXTR CCR EryR PenR
[11] = ATCC27853, P. aeruginosa MMX 103 (ATCC 27853), QC, read-out: MIC
[12] = A. baumannii MMX 3373, Sensitive, read-out: MIC
[13] = ATCC49226, N. gonorrhoeae MMX 683 (ATCC 49226), QC
[14] = N. gonorrhoeae MMX 6757, CTX NS
[15] = read-out: MIC values across isolates, N. gonorrhoeae isolates (Table 7)

| SMILES | CLSI QC range of MIC (P. aeruginosa [1]) | MIC (S. pneumoniae; [4]) [µg/mL] | MIC (S. pneumoniae; [5]) [µg/mL] | MIC (S. pneumoniae; [6]) [µg/mL] | MIC (S. pneumoniae; [7]) [µg/mL] | MIC (S. pneumoniae; [8]) [µg/mL] | MIC (S. pneumoniae; [9]) [µg/mL] | MIC (S. pneumoniae; [10]) [µg/mL] | MIC (P. aeruginosa [2]; [11]) [µg/mL] | MIC (A. baumannii; [12]) [µg/mL] | MIC (E. faecalis; E. faecalis MMX 8960) [µg/mL] | MIC (E. faecalis; E. faecalis MMX 8961) [µg/mL] | MIC (E. faecalis; E. faecalis MMX 8962) [µg/mL] | MIC (enterococci) [µg/mL] | MIC [3] [µg/mL] | MIC (N. gonorrhoeae; [13]) [µg/mL] | MIC (N. gonorrhoeae; [14]) [µg/mL] | MIC (N. gonorrhoeae; N. gonorrhoeae MMX 6791, CIPR) [µg/mL] | MIC (N. gonorrhoeae; N. gonorrhoeae MMX 6792, CIPR) [µg/mL] | MIC (N. gonorrhoeae; N. gonorrhoeae MMX 6793, CIPR) [µg/mL] | further results |
| --- | --- | --- | --- | --- | --- | --- | --- | --- | --- | --- | --- | --- | --- | --- | --- | --- | --- | --- | --- | --- | --- |
| CC(C)(O/N=C(\C(=O)N[C@@H]1C(=O)N2C(C(=O)[O-])=C(C[n+]3ccccc3)CS[C@H]12)c1csc(N)n1)C(=O)O [Ceftazidime] | (1-4) μg/mL | – | – | – | – | – | – | – | – | – | – | – | – | – | – | – | – | – | – | – | – |
| OCC(S)CS.[Bi] (stereo not shown) [MB-2B, bismuth-2,3-dimercaptopropanol] | – | 8 | 8 | 1 | 8 | 8 | 8 | 8 | 8 | 16 | 2 | 2 | 2 | 2 to 4 | 2 to 16 | 0.12 | 0.5 | 0.12 | 0.12 | 0.5 | MIC (S. pneumoniae; read-out: MIC values across isolates, pneumococci (Table 6)): 1 to 8 µg/mL; MIC (P. aeruginosa [2]; P. aeruginosa MMX 1381, MDR): 2 µg/mL; MIC (P. aeruginosa [2]; P. aeruginosa MMX 2562, MDR): 4 µg/mL; MIC (P. aeruginosa [2]; P. aeruginosa MMX 3991, MDR): 8 µg/mL; MIC (P. aeruginosa [2]; P. aeruginosa MMX 4654, IMP-7): 8 µg/mL; MIC (P. aeruginosa [2]; P. aeruginosa MMX 4697, VIM-2): 16 µg/mL; MIC (A. baumannii; A. baumannii MMX 2592, MDR): 16 µg/mL; MIC (A. baumannii; A. baumannii MMX 2593, MDR): 16 µg/mL; MIC (A. baumannii; A. baumannii MMX 3372, MDR): 16 µg/mL; MIC (A. baumannii; NCTC13304, A. baumannii MMX 4651 (NCTC 13304), MDR, OXA-27): 16 µg/mL; MIC (N. gonorrhoeae; [15]): 0.12 to 0.5 µg/mL |
| C[C@@H](O)[C@H]1C(=O)N2C(C(=O)O)=C(S[C@@H]3CN[C@H](C(=O)N(C)C)C3)[C@H](C)[C@H]12 [Meropenem] | (0.25-1) μg/mL | – | – | – | – | – | – | – | – | – | – | – | – | – | – | – | – | – | – | – | – |
| NCC[C@H](O)C(=O)N[C@@H]1C[C@H](N)[C@@H](O[C@H]2O[C@H](CN)[C@@H](O)[C@H](O)[C@H]2O)[C@H](O)[C@H]1O[C@H]1O[C@H](CO)[C@@H](O)[C@H](N)[C@H]1O [Amikacin] | – | – | – | – | – | – | – | – | – | – | – | – | – | – | – | – | – | – | – | – | MIC (M. abscessus (MABSC); strain AMT0068-40, M abscessus/massiliense complex): 32 µg/mL (≈ 54.6 µM); MIC (M. abscessus (MABSC); strain AMT0119-7, M abscessus/massiliense complex): 32 µg/mL (≈ 54.6 µM) |
| CC(S)C(C)S.[Bi] (stereo not shown) [MB-6, bismuth-2,3-butanedithiol] | – | 0.5 | 0.5 | 8 | 1 | 0.5 | 0.5 | 0.5 | 1 | 0.5 | 0.5 | 0.25 | 0.25 | 0.25 to 1 | 0.5 to 2 | 0.06 | 0.06 | 0.12 | 0.12 | 0.25 | MIC (M. abscessus (MABSC); MABSC strain AMT0130-8): 0.0625 µg/mL; MIC (N. gonorrhoeae; [15]): 0.06 to 0.25 µg/mL |
